ChEMBL document CHEMBL4052738, “Design and synthesis of 4-morpholino-6-(1,2,3,6-tetrahydropyridin-4-yl)-N-(3,4,5-trimethoxyphenyl)-1,3,5-triazin-2-amine analogues as tubulin polymerization inhibitors” (Bioorg Med Chem Lett, 2017)
Active and inactive are the calls of the source. The calls are words filed in the database; no cut-off is given here.

Legend:
MCF7 = assay: Antiproliferative activity against human MCF7 cells after 48 hrs by sulforhodamine B assay; type: functional, cell-based; conditions: MCF7, 48 h
A549 = assay: Antiproliferative activity against human A549 cells after 48 hrs by sulforhodamine B assay; type: functional, cell-based; conditions: A549, 48 h
HepG2 = assay: Antiproliferative activity against human HepG2 cells after 48 hrs by sulforhodamine B assay; type: functional, cell-based; conditions: HepG2, 48 h
HeLa [1] = assay: Antiproliferative activity against human HeLa cells after 48 hrs by sulforhodamine B assay; type: functional, cell-based
HeLa [2] = assay: Inhibition of microtubule polymerization in human HeLa cells assessed as cell rounding at 1 mM after 24 hrs by DAPI staining-based immunofluorescence assay
HeLa [3] = assay: Inhibition of tubulin polymerization in human HeLa cells assessed as increase in soluble tubulin fraction at 1 mM after 24 hrs by immunoblot analysis; type: cell-based
[4] = Inhibition of porcine tubulin polymerization after 1 hr in presence of GTP; parameters: species or system Sus scrofa
HeLa [5] = assay: Induction of apoptosis in human HeLa cells assessed as increase in cyclin-B1 levels at 1 mM after 24 hrs by immunoblot analysis; type: functional, cell-based
HeLa [6] = assay: Inhibition of microtubule polymerization in human HeLa cells assessed as spindle fibres in nucleus at 1 mM after 24 hrs by DAPI staining-based immunofluorescence assay; type: cell-based
HeLa [7] = assay: Induction of apoptosis in human HeLa cells assessed as increase in cyclin-B1 levels at 10 mM after 24 hrs by immunoblot analysis; type: functional, cell-based
HeLa [8] = assay: Inhibition of tubulin polymerization in human HeLa cells assessed as increase in soluble tubulin fraction at 10 mM after 24 hrs by immunoblot analysis; type: cell-based
HeLa [9] = assay: Inhibition of microtubule polymerization in human HeLa cells assessed as cell rounding at 10 mM after 24 hrs by DAPI staining-based immunofluorescence assay
HeLa [10] = assay: Inhibition of microtubule polymerization in human HeLa cells assessed as spindle fibres in nucleus at 10 mM after 24 hrs by DAPI staining-based immunofluorescence assay; type: cell-based

SMILES	IC50 (MCF7)	IC50 (A549)	IC50 (HepG2)	IC50 (HeLa [1])	further results
COc1ccc(C(=O)N2CC=C(c3nc(Nc4cc(OC)c(OC)c(OC)c4)nc(N4CCOCC4)n3)CC2)cc1	32.1 µM	33.3 µM	30.6 µM	43 µM	
COc1cc(Nc2nc(C3=CCN(S(=O)(=O)c4ccc(C(C)=O)cc4)CC3)nc(N3CCOCC3)n2)cc(OC)c1OC	32.1 µM	32 µM	36.5 µM	45 µM	
COc1cc(Nc2nc(C3=CCN(S(=O)(=O)c4ccc(C(C)(C)C)cc4)CC3)nc(N3CCOCC3)n2)cc(OC)c1OC	40.4 µM	33.5 µM	48.4 µM	50.4 µM	
COC(=O)Nc1nc2cc(C(=O)c3cccs3)ccc2[nH]1 [NOCODAZOLE]	1.5 µM		1.1 µM	1.6 µM	inhibition (HeLa [2]): Active; inhibition (HeLa [3]): Active; IC50 [4]: 0.8 µM; Activity (HeLa [5]): Active; inhibition (HeLa [6]): Active
COc1cc(Nc2nc(C3=CCN(C(=O)c4ccncc4)CC3)nc(N3CCOCC3)n2)cc(OC)c1OC	32.1 µM	48.9 µM	39.5 µM	50.6 µM	
COc1cc(Nc2nc(C3=CCN(C(=O)c4cccnc4Cl)CC3)nc(N3CCOCC3)n2)cc(OC)c1OC	30.2 µM	42.9 µM	45 µM	41 µM	
COc1cc(Nc2nc(C3=CCN(S(=O)(=O)c4ccc(C(F)(F)F)cc4)CC3)nc(N3CCOCC3)n2)cc(OC)c1OC	40.5 µM	29.9 µM	27.2 µM	32.1 µM	
COc1cc(Nc2nc(C3=CCN(C(=O)c4ccco4)CC3)nc(N3CCOCC3)n2)cc(OC)c1OC	32 µM	51 µM	37.1 µM	45 µM	
COc1cc(Nc2nc(C3=CCN(C(=O)c4ccc(Cl)cc4)CC3)nc(N3CCOCC3)n2)cc(OC)c1OC	38.3 µM	43.5 µM	40.3 µM	34.8 µM	
COc1cc(Nc2nc(C3=CCN(C(=O)c4ccc(Br)cc4O)CC3)nc(N3CCOCC3)n2)cc(OC)c1OC	28 µM	45.9 µM	38.9 µM	43.9 µM	
COc1ccc(S(=O)(=O)N2CC=C(c3nc(Nc4cc(OC)c(OC)c(OC)c4)nc(N4CCOCC4)n3)CC2)cc1	50.3 µM	34.9 µM	30.6 µM	47.8 µM	
COc1cc(Nc2nc(C3=CCN(S(=O)(=O)c4ccc(C)cc4)CC3)nc(N3CCOCC3)n2)cc(OC)c1OC	42.1 µM	40.3 µM	25 µM	45.7 µM	
COc1cc(Nc2nc(C3=CCN(S(=O)(=O)c4ccc(Br)s4)CC3)nc(N3CCOCC3)n2)cc(OC)c1OC	30.6 µM	29 µM	28 µM	39.6 µM	
COc1cc(Nc2nc(C3=CCN(S(=O)(=O)c4ccc(Cl)cc4)CC3)nc(N3CCOCC3)n2)cc(OC)c1OC	30.6 µM	40.8 µM	49.3 µM	51 µM	
COc1cc(Nc2nc(C3=CCN(C(=O)N4CCN(c5ccc(C)cc5)CC4)CC3)nc(N3CCOCC3)n2)cc(OC)c1OC	49.1 µM	29.6 µM	40 µM	39.6 µM	
COc1cc(Nc2nc(C3=CCN(C(=O)N4CCCC4)CC3)nc(N3CCOCC3)n2)cc(OC)c1OC	34 µM	43.3 µM	38.8 µM	29.4 µM	
COc1cc(Nc2nc(C3=CCN(C(=O)Nc4ccc(F)c(F)c4)CC3)nc(N3CCOCC3)n2)cc(OC)c1OC	30.6 µM	51 µM	34.5 µM	30.4 µM	
COc1cc(Nc2nc(C3=CCN(C(=O)c4cnccn4)CC3)nc(N3CCOCC3)n2)cc(OC)c1OC	39.4 µM	41.9 µM	40 µM	48.3 µM	
COc1cc(Nc2nc(C3=CCN(C(=O)C(F)(F)F)CC3)nc(N3CCOCC3)n2)cc(OC)c1OC	48.4 µM	28.6 µM	50.6 µM	43.1 µM	
COc1cc(Nc2nc(C3=CCN(C(C)=O)CC3)nc(N3CCOCC3)n2)cc(OC)c1OC	40.2 µM	49 µM	50.6 µM	45.7 µM	

SMILES	IC50 (MCF7)	IC50 (A549)	IC50 (HepG2)	IC50 (HeLa [1])	further results
COc1ccc(NC(=O)N2CC=C(c3nc(Nc4cc(OC)c(OC)c(OC)c4)nc(N4CCOCC4)n3)CC2)cc1	26.4 µM	45.9 µM	43.6 µM	40.5 µM	
COc1cc(Nc2nc(C3=CCN(C(=O)Nc4ccc(F)cc4)CC3)nc(N3CCOCC3)n2)cc(OC)c1OC	25.9 µM	45.7 µM	29.1 µM	40.1 µM	
COc1cc(Nc2nc(C3=CCN(C(=O)CS)CC3)nc(N3CCOCC3)n2)cc(OC)c1OC	30.5 µM	43.2 µM	32.9 µM	32.9 µM	
CCN1CCN(C(=O)N2CC=C(c3nc(Nc4cc(OC)c(OC)c(OC)c4)nc(N4CCOCC4)n3)CC2)CC1	30 µM	43.2 µM	45.9 µM	39.5 µM	
COc1cc(Nc2nc(C3=CCN(C(=O)c4ccc([N+](=O)[O-])o4)CC3)nc(N3CCOCC3)n2)cc(OC)c1OC	11.7 µM	10.5 µM	9.6 µM	12.3 µM	IC50 [4]: 5.2 µM; Activity (HeLa [7]): Active; inhibition (HeLa [8]): Active; inhibition (HeLa [9]): Active; inhibition (HeLa [10]): Active
COc1cc(Nc2nc(C3=CCN(C(=O)Nc4ccc(Cl)cc4)CC3)nc(N3CCOCC3)n2)cc(OC)c1OC	29 µM	35.9 µM	34.9 µM	30.7 µM	
COc1cc(Nc2nc(C3=CCN(C(=O)c4ccc(Br)cc4)CC3)nc(N3CCOCC3)n2)cc(OC)c1OC	39.8 µM	34 µM	35.7 µM	40.4 µM	
COc1cc(Nc2nc(C3=CCN(C(=O)CC#N)CC3)nc(N3CCOCC3)n2)cc(OC)c1OC	40.4 µM	42 µM	29.8 µM	34.2 µM	
COc1cc(Nc2nc(C3=CCN(S(=O)(=O)c4ccc(Br)cc4)CC3)nc(N3CCOCC3)n2)cc(OC)c1OC	32.5 µM	43.6 µM	40.4 µM	30.6 µM	
COc1cc(Nc2nc(C3=CCN(C(=O)N4CCOCC4)CC3)nc(N3CCOCC3)n2)cc(OC)c1OC	38.2 µM	32 µM	29 µM	45.2 µM	
COc1cc(Nc2nc(C3=CCN(C(=O)Nc4ccncc4)CC3)nc(N3CCOCC3)n2)cc(OC)c1OC	38.5 µM	32 µM	50 µM	34 µM	
COc1cc(Nc2nc(C3=CCN(S(=O)(=O)c4ccc([N+](=O)[O-])cc4)CC3)nc(N3CCOCC3)n2)cc(OC)c1OC	40.3 µM	34.6 µM	43.2 µM	32 µM	
COc1cc(Nc2nc(C3=CCN(S(=O)(=O)c4ccc(F)cc4)CC3)nc(N3CCOCC3)n2)cc(OC)c1OC	29.6 µM	45.6 µM	30 µM	50.6 µM	
COc1cc(Nc2nc(C3=CCN(C(=O)Cc4c[nH]c5ccccc45)CC3)nc(N3CCOCC3)n2)cc(OC)c1OC	29.8 µM	43.9 µM	32 µM	33.2 µM	
COc1cc(Nc2nc(C3=CCN(S(C)(=O)=O)CC3)nc(N3CCOCC3)n2)cc(OC)c1OC	28.9 µM	39 µM	28.5 µM	32 µM	
COc1cc(Nc2nc(C3=CCN(C(=O)N4CCCCC4)CC3)nc(N3CCOCC3)n2)cc(OC)c1OC	40.5 µM	30.8 µM	41.7 µM	34 µM	
COc1cc(Nc2nc(C3=CCN(C(=O)N4CCN(C)CC4)CC3)nc(N3CCOCC3)n2)cc(OC)c1OC	40.8 µM	34.6 µM	34.9 µM	40.2 µM	
COc1ccc(/C=C\c2cc(OC)c(OC)c(OC)c2)cc1O [COMBRETASTATIN A4]	4.2 µM	5.3 µM	4.3 µM	5.8 µM	
COc1cc(Nc2nc(C3=CCN(S(=O)(=O)c4ccccc4[N+](=O)[O-])CC3)nc(N3CCOCC3)n2)cc(OC)c1OC	50.5 µM	33.5 µM	51 µM	32 µM	
